Structures are written as SMILES.

In assay [1] the test system is HCT116 colorectal cancer cells. The experiment in a line: Cisplatin Sensitization Assay (96 h cell viability MTS). Particulars: Cisplatin sensitization value: concentration of compound required to reduce the IC50 of Cisplatin alone by at least 3-fold; HCT116, 96 h MTS. Type of assay: cell-based. As for the experimental part: Compounds can be screened for their ability to sensitize HCT116 colorectal cancer cells to Cisplatin using a 96 h cell viability (MTS) assay. […] Compounds and Cisplatin are then both added simultaneously to the cell media in 2-fold serial dilutions from a top final concentration of 10 μM as a full matrix of concentrations in a final cell volume of 200 μl, and the cells are then incubated at 37° C. in 5% CO2. After 96 h, 40 μl of MTS reagent (Promega G358a) is added to each well and the cells are incubated for 1 h at 37° C. in 5% CO2. Finally, absorbance is measured at 490 nm using a SpectraMax Plus 384 reader (Molecular Devices) and the concentration of compound required to reduce the IC50 of Cisplatin alone by at least 3-fold (to 1 decimal place) can be reported.

Another assay deals with full-length ATR (Homo sapiens (Human), UniProt Q13535). Description: ATR Inhibition Assay (radioactive-phosphate incorporation). It is filed as biochemical. Particulars: Ki(app); 5 nM full-length ATR, 10 μM ATP, 25° C. As for the experimental part: Compounds were screened for their ability to inhibit ATR kinase using a radioactive-phosphate incorporation assay. Assays were carried out in a mixture of 50 mM Tris/HCl (pH 7.5), 10 mM MgCl2 and 1 mM DTT. Final substrate concentrations were 10 μM [γ-33P]ATP (3 mCi 33P ATP/mmol ATP, Perkin Elmer) and 800 μM target peptide (ASELPASQPQPFSAKKK (SEQ. ID NO: 1)).
Chain of full-length ATR (Q13535 whole entry): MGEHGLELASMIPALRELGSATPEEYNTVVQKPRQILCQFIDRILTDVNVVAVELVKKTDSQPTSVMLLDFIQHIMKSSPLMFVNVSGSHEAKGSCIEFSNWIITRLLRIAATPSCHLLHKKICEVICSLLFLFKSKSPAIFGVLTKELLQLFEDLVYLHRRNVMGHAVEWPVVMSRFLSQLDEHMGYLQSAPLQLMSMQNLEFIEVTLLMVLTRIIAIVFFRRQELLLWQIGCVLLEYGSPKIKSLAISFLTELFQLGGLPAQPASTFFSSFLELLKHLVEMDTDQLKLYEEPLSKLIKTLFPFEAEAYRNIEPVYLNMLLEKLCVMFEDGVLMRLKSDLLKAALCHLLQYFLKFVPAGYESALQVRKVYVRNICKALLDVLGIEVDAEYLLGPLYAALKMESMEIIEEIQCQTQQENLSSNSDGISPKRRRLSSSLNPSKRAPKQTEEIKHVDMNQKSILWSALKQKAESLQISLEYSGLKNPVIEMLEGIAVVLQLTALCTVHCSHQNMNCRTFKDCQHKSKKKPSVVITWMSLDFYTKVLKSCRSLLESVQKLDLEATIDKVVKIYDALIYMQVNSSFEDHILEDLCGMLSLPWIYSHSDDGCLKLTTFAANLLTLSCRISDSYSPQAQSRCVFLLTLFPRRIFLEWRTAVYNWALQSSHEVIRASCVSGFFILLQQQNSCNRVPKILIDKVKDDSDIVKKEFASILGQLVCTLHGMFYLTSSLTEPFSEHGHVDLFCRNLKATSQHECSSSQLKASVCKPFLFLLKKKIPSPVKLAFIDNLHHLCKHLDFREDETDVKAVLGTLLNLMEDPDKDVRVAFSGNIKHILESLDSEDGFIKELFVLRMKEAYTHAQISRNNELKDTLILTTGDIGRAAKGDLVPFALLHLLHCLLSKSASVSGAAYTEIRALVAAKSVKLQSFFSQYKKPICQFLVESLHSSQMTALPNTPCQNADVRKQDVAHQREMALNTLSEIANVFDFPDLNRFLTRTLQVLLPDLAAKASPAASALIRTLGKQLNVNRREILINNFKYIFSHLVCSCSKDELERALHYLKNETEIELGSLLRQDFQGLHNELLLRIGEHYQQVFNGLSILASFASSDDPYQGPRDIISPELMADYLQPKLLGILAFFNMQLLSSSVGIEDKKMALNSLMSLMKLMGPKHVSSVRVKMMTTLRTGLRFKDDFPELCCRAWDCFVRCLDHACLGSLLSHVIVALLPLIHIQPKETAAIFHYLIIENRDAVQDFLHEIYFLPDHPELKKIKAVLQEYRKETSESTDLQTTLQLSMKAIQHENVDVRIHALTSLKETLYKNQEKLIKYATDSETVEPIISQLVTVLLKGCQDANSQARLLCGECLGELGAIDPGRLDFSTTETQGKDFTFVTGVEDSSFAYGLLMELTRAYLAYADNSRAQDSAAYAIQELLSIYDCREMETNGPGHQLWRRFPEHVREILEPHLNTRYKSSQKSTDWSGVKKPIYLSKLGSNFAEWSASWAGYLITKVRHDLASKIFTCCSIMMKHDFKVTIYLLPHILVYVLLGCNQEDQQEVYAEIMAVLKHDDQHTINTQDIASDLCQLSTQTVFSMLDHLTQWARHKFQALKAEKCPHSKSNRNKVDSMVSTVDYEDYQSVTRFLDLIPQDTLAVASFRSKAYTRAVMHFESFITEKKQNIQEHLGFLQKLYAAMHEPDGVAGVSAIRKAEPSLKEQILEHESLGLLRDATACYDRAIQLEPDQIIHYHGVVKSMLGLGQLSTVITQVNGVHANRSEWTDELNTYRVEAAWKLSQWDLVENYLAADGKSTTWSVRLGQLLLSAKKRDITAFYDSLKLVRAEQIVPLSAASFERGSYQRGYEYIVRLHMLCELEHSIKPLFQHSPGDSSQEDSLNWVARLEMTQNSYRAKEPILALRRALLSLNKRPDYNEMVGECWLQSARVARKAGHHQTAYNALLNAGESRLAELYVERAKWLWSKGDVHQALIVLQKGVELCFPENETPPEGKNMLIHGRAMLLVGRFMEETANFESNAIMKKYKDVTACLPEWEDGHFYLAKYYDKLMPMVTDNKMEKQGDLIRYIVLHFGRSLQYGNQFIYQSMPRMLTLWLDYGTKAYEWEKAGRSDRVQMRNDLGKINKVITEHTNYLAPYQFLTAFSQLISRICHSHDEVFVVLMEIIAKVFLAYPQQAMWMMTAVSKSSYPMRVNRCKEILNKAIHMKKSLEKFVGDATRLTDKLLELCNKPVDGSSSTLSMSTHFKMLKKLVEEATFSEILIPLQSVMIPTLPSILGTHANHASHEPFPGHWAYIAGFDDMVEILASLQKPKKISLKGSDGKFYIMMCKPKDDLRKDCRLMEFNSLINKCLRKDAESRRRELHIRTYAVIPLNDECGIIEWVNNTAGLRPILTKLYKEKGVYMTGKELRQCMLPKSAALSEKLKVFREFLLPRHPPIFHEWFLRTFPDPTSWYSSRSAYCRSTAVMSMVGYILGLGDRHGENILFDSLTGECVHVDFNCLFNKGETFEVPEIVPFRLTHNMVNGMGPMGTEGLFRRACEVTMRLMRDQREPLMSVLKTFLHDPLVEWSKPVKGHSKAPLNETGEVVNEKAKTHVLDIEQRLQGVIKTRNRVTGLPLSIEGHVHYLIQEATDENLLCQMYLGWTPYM
Assays were carried out at 25° C. in the presence of 5 nM full-length ATR. An assay stock buffer solution was prepared containing all of the reagents listed above, with the exception of ATP and the test compound of interest. 13.5 μL of the stock solution was placed in a 96 well plate followed by addition of 2 μL of DMSO stock containing serial dilutions of the test compound (typically starting from a final concentration of 15 μM with 3-fold serial dilutions) in duplicate (final DMSO concentration 7%). The plate was pre-incubated for 10 minutes at 25° C. and the reaction initiated by addition of 15 μL [γ-33P]ATP (final concentration 10 μM).
The reaction was stopped after […] by the addition of 30 μL 0.1M phosphoric acid containing 2 mM ATP. A multiscreen phosphocellulose filter 96-well plate (Millipore, Cat no. MAPHN0B50) was pretreated with 100 μL 0.2M phosphoric acid prior to the addition of 45 μL of the stopped assay mixture. The plate was washed with 5×200 μL 0.2M phosphoric acid. After drying, 100 μL Optiphase ‘SuperMix’ liquid scintillation cocktail (Perkin Elmer) was added to the well prior to scintillation counting (1450 Microbeta Liquid Scintillation Counter, Wallac).
After removing mean background values for all of the data points, Ki(app) data were calculated from non-linear regression analysis of the initial rate data using the Prism software package (GraphPad Prism version 3.0cx for Macintosh, GraphPad Software, San Diego Calif., USA).

Take `Cc1ccncc1NC(=O)c1c(N)nn2cc3c(nc12)CCNC3` [Compound I-1, 2-amino-N-(4-methylpyridin-3-yl)-5,6,7,8-tetrahydropyrazolo[1,5-a]pyrido[4,3-d]pyrimidine-3-carboxamide]: the “Synergy with Cisplatin” value in assay [1] is on record as “++ (Cisplatin sensitization value >0.02 μM but <0.2 μM)”. Besides, at full-length ATR, the Ki was in the range of 10 to 1000 nM.

Take `COc1ccncc1NC(=O)c1c(N)nn2cc3c(nc12)CCNC3` [Compound I-2, 2-amino-N-(4-methoxypyridin-3-yl)-5,6,7,8-tetrahydropyrazolo[1,5-a]pyrido[4,3-d]pyrimidine-3-carboxamide]: the “Synergy with Cisplatin” value in assay [1] is “++ (Cisplatin sensitization value >0.02 μM but <0.2 μM)”. Further, the Ki at full-length ATR was in the range of 10 to 1000 nM.

Consider `CC(C)Oc1ccncc1NC(=O)c1c(N)nn2cc3c(nc12)CCNC3` [Compound I-3, 2-amino-N-(4-isopropoxypyridin-3-yl)-5,6,7,8-tetrahydropyrazolo[1,5-a]pyrido[4,3-d]pyrimidine-3-carboxamide], for which the “Synergy with Cisplatin” value in assay [1] is “+++ (Cisplatin sensitization value of <0.02 μM)”. Further, at full-length ATR, the Ki lay in the range of 10 to 1000 nM.

Consider `Nc1nn2cc3c(nc2c1C(=O)Nc1cnccc1OCC(F)(F)F)CCNC3` [Compound I-4, 2-amino-N-(4-(2,2,2-trifluoroethoxy)pyridin-3-yl)-5,6,7,8-tetrahydropyrazolo[1,5-a]pyrido[4,3-d]pyrimidine-3-carboxamide], for which the “Synergy with Cisplatin” value in assay [1] is reported as “+++ (Cisplatin sensitization value of <0.02 μM)”. The Ki on full-length ATR was in the range of 10 to 1000 nM.

`COc1c(Cl)cncc1NC(=O)c1c(N)nn2cc3c(nc12)CCNC3` [Compound I-5, 2-amino-N-(5-chloro-4-methoxypyridin-3-yl)-5,6,7,8-tetrahydropyrazolo[1,5-a]pyrido[4,3-d]pyrimidine-3-carboxamide]: the “Synergy with Cisplatin” value in assay [1] is on record as “++ (Cisplatin sensitization value >0.02 μM but <0.2 μM)”. The Ki on full-length ATR lay within 10 to 1000 nM.

As for `COc1cc(Cl)ncc1NC(=O)c1c(N)nn2cc3c(nc12)CCNC3` [Compound I-6, 2-amino-N-(6-chloro-4-methoxypyridin-3-yl)-5,6,7,8-tetrahydropyrazolo[1,5-a]pyrido[4,3-d]pyrimidine-3-carboxamide], in assay [1], the “Synergy with Cisplatin” value is reported as “++ (Cisplatin sensitization value >0.02 μM but <0.2 μM)”. Also, the Ki at full-length ATR fell in the range of 10 to 1000 nM.

Consider `COc1cc(Cl)ncc1NC(=O)c1c(N)nn2cc3c(nc12)CCN(C)C3` [Compound I-7, 2-amino-N-(6-chloro-4-methoxypyridin-3-yl)-7-methyl-5,6,7,8-tetrahydropyrazolo[1,5-a]pyrido[4,3-d]pyrimidine-3-carboxamide], for which the “Synergy with Cisplatin” value in assay [1] is “++ (Cisplatin sensitization value >0.02 μM but <0.2 μM)”. In addition, the Ki on full-length ATR lay in the range of 10 to 1000 nM.

On to `Nc1nn2cc3c(nc2c1C(=O)Nc1cnccc1OC1CCOCC1)CCNC3` [Compound I-8, 2-amino-N-(4-((tetrahydro-2H-pyran-4-yl)oxy)pyridin-3-yl)-5,6,7,8-tetrahydropyrazolo[1,5-a]pyrido[4,3-d]pyrimidine-3-carboxamide], for which the “Synergy with Cisplatin” value in assay [1] is “++ (Cisplatin sensitization value >0.02 μM but <0.2 μM)”. In addition, on full-length ATR, the Ki is 10 to 1000 nM.

For `COc1ncncc1NC(=O)c1c(N)nn2cc3c(nc12)CCNC3` [Compound I-9, 2-amino-N-(4-methoxypyrimidin-5-yl)-5,6,7,8-tetrahydropyrazolo[1,5-a]pyrido[4,3-d]pyrimidine-3-carboxamide], the “Synergy with Cisplatin” value in assay [1] is recorded as “+ (Cisplatin sensitization value >0.2 μM but <5 μM)”. Further, the Ki at full-length ATR was 10 to 1000 nM.

Take `CC(C)Oc1ncncc1NC(=O)c1c(N)nn2cc3c(nc12)CCNC3` [Compound I-10, 2-amino-N-(4-isopropoxypyrimidin-5-yl)-5,6,7,8-tetrahydropyrazolo[1,5-a]pyrido[4,3-d]pyrimidine-3-carboxamide]: the “Synergy with Cisplatin” value in assay [1] is given as “++ (Cisplatin sensitization value >0.02 μM but <0.2 μM)”. In addition, the Ki at full-length ATR lay in the range of 10 to 1000 nM.

As to `CN1CCc2nc3c(C(=O)Nc4cnccc4C4CC4)c(N)nn3cc2C1` [Compound I-11, 2-amino-N-(4-cyclopropylpyridin-3-yl)-7-methyl-5,6,7,8-tetrahydropyrazolo[1,5-a]pyrido[4,3-d]pyrimidine-3-carboxamide], in assay [1], the “Synergy with Cisplatin” value is recorded as “+++ (Cisplatin sensitization value of <0.02 μM)”. For the same compound, the Ki on full-length ATR was in the range of 10 to 1000 nM.

On to `CN1CCc2nc3c(C(=O)Nc4cncc(F)c4C4CC4)c(N)nn3cc2C1` [Compound I-12, 2-amino-N-(4-cyclopropyl-5-fluoropyridin-3-yl)-7-methyl-5,6,7,8-tetrahydropyrazolo[1,5-a]pyrido[4,3-d]pyrimidine-3-carboxamide], for which, in assay [1], the “Synergy with Cisplatin” value was “++ (Cisplatin sensitization value >0.02 μM but <0.2 μM)”. In addition, the Ki on full-length ATR is 10 to 1000 nM.

With `COc1ccncc1NC(=O)c1c(N)nn2cc3c(nc12)CCN(C)C3` [Compound I-13, 2-amino-N-(4-methoxypyridin-3-yl)-7-methyl-5,6,7,8-tetrahydropyrazolo[1,5-a]pyrido[4,3-d]pyrimidine-3-carboxamide], the “Synergy with Cisplatin” value in assay [1] is recorded as “++ (Cisplatin sensitization value >0.02 μM but <0.2 μM)”. Also, the Ki at full-length ATR was 10 to 1000 nM.

For `CN1CCc2nc3c(C(=O)Nc4cnccc4OC4COC4)c(N)nn3cc2C1` [Compound I-14, 2-amino-7-methyl-N-(4-(oxetan-3-yloxy)pyridin-3-yl)-5,6,7,8-tetrahydropyrazolo[1,5-a]pyrido[4,3-d]pyrimidine-3-carboxamide], the “Synergy with Cisplatin” value in assay [1] is listed as “++ (Cisplatin sensitization value >0.02 μM but <0.2 μM)”. Also, on full-length ATR, the Ki is 10 to 1000 nM.

For the compound `CN1CCc2nc3c(C(=O)Nc4cncnc4C4CC4)c(N)nn3cc2C1` [Compound I-15, 2-amino-N-(4-cyclopropylpyrimidin-5-yl)-7-methyl-5,6,7,8-tetrahydropyrazolo[1,5-a]pyrido[4,3-d]pyrimidine-3-carboxamide], the “Synergy with Cisplatin” value in assay [1] is “++ (Cisplatin sensitization value >0.02 μM but <0.2 μM)”. Also, on full-length ATR, the Ki lay within 10 to 1000 nM.

Turning to `CC(C)Oc1ncncc1NC(=O)c1c(N)nn2cc3c(nc12)CCN(C)C3` [Compound I-16, 2-amino-N-(4-isopropoxypyrimidin-5-yl)-7-methyl-5,6,7,8-tetrahydropyrazolo[1,5-a]pyrido[4,3-d]pyrimidine-3-carboxamide], the “Synergy with Cisplatin” value in assay [1] is “++ (Cisplatin sensitization value >0.02 μM but <0.2 μM)”. For the same compound, on full-length ATR, the Ki was in the range of 10 to 1000 nM.

As for `COc1ccncc1NC(=O)c1c(N)nn2cc3c(nc12)CCN(C(C)C)C3` [Compound I-17, 2-amino-7-isopropyl-N-(4-methoxypyridin-3-yl)-5,6,7,8-tetrahydropyrazolo[1,5-a]pyrido[4,3-d]pyrimidine-3-carboxamide], in assay [1], the “Synergy with Cisplatin” value was “++ (Cisplatin sensitization value >0.02 μM but <0.2 μM)”. Also, the Ki on full-length ATR was in the range of 10 to 1000 nM.

With `COc1ccncc1NC(=O)c1c(N)nn2cc3c(nc12)CCN(C1CC1)C3` [Compound I-18, 2-amino-7-cyclopropyl-N-(4-methoxypyridin-3-yl)-5,6,7,8-tetrahydropyrazolo[1,5-a]pyrido[4,3-d]pyrimidine-3-carboxamide], the “Synergy with Cisplatin” value in assay [1] is on record as “++ (Cisplatin sensitization value >0.02 μM but <0.2 μM)”. Besides, the Ki on full-length ATR lay in the range of 10 to 1000 nM.

Consider `Nc1nn2cc3c(nc2c1C(=O)Nc1cnccc1-c1ccccc1)CCN(C1COC1)C3` [Compound I-23, 2-amino-7-(oxetan-3-yl)-N-(4-phenylpyridin-3-yl)-5,6,7,8-tetrahydropyrazolo[1,5-a]pyrido[4,3-d]pyrimidine-3-carboxamide], for which the Ki at full-length ATR was in the range of 10 to 1000 nM.

Turning to `COc1ccncc1NC(=O)c1c(N)nn2cc3c(nc12)CCN(C(C)(C)C)C3` [Compound I-29, 2-amino-7-(tert-butyl)-N-(4-methoxypyridin-3-yl)-5,6,7,8-tetrahydropyrazolo[1,5-a]pyrido[4,3-d]pyrimidine-3-carboxamide], on full-length ATR, the Ki fell in the range of 10 to 1000 nM.

Take `Cn1cncc1-c1ccncc1NC(=O)c1c(N)nn2cc3c(nc12)CCN(C1COC1)C3` [Compound I-32, 2-amino-N-(4-(1-methyl-1H-imidazol-5-yl)pyridin-3-yl)-7-(oxetan-3-yl)-5,6,7,8-tetrahydropyrazolo[1,5-a]pyrido[4,3-d]pyrimidine-3-carboxamide]: the Ki at full-length ATR fell in the range of 10 to 1000 nM.

(Values after patent US9663519B2, “Compounds useful as inhibitors of ATR kinase” (Vertex Pharmaceuticals Incorporated, priority 2013, dated 2017).)
